Test results reported in US10807976B2, “Quinolinone five-membered heterocyclic compounds as mutant-isocitrate dehydrogenase inhibitors” (FORMA Therapeutics, Inc., priority 2015, dated 2020).

Biological target: IDH1-R132H recombinant protein (Homo sapiens, UniProt O75874, R132H)
Assay: IDH1-R132H enzymatic assay (diaphorase/resazurin, NADPH consumption)
Assay type: biochemical
Details: 30 nM IDH1-R132H, inhibition of NADPH consumption; read-out: Enzyme IDH1 R132H IC50
Experimental: Example 26—IDH1-R132H and IDH1-R132C Enzymatic Assay
Assays were performed in a 384-well black plate. An aliquot of 250 nL of compound was incubated with 10 μL of 30 nM IDH1-R132H or 10 nM IDH1-R132C recombinant protein in assay buffer (50 mM Tris pH=7.5, 150 mM NaCl, 5 mM MgCl2, 0.1% (w/v) Bovine Serum Albumin, and 0.01% Triton X-100) in each well at 25° C. for 15 minutes. After the plate was centrifuged briefly, an aliquot of 10 μL of 2 mM α-ketoglutarate and 20 μM NADPH solution prepared in assay buffer was then added to each well and the reaction was maintained at 25° C. for 45 minutes. An aliquot of 10 μL of diaphorase solution (0.15 U/mL diaphorase and 30 μM Resazurin in assay buffer) was added to each well. The plate was maintained at 25° C. for 15 minutes and then read on a plate reader with excitation and emission wavelengths at 535 nm and 590 nm, respectively. The IC50 of a given compound was calculated by fitting the dose response curve of inhibition of NADPH consumption at a given concentration with the four parameter logistic equation.

IDH1-R132H recombinant protein, sequence (O75874 whole entry R132H): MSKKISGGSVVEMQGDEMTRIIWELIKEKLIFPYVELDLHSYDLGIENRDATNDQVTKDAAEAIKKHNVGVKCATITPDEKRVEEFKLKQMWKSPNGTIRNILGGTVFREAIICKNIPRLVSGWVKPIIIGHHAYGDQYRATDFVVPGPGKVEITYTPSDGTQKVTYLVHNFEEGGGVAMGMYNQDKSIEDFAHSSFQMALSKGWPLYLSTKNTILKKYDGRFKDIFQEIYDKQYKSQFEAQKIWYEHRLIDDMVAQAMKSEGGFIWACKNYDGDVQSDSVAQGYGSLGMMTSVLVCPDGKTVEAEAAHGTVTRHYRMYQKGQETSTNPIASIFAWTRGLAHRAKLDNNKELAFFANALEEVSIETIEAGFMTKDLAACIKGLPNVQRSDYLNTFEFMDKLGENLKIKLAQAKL

Substance: 6-chloro-3-[(1S)-1-{[5-(2-oxo-1,3-oxazolidin-3-yl)-1,2,4-thiadiazol-3-yl]amino}ethyl]-1,2-dihydroquinolin-2-one [Compound I-12]
- IC50: > 10 µM
